Data on 22 molecules can be found in patent US8039586B1, “Cerebral organic anion transporter and its gene” (J-Pharma Co., Ltd., priority 1998, dated 2011).

Like-named read-outs stand apart in the source and are kept apart here.

Type in all cases: cell-based
Data set [1] has as its target T1, hOAT3 (Homo sapiens, UniProt Q8TCC7).
T1 construct: cRNA (RNA complementary to cDNA) was prepared in vitro from the plasmid comprising the hOAT3 recovered above; expressed in transfected cells; host or cells: Xenopus oocytes injected with hOAT3 cRNA
T1 sequence (Q8TCC7 1-542 K271E/D366H): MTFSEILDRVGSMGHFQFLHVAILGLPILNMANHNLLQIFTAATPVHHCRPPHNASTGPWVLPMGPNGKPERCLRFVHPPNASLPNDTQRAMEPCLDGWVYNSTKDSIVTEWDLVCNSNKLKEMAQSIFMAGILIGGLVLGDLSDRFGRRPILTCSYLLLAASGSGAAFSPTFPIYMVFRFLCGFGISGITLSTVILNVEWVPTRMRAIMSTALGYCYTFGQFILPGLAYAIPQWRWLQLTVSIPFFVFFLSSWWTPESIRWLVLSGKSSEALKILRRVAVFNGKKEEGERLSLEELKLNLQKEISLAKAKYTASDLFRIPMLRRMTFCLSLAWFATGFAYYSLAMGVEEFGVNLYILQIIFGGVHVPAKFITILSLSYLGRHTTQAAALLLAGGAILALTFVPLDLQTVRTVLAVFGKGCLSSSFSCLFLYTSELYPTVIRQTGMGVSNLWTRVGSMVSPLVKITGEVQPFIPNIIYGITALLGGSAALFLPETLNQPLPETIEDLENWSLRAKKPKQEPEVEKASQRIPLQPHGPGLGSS
The experiment in a line: Uptake of radiolabeled compounds by Xenopus oocyte injected with hOAT3 cRNA. As for the experimental part: By using T7 RNA polymerase, cRNA (RNA complementary to cDNA) was prepared in vitro from the plasmid comprising the hOAT3 recovered above by the method by Sekine, et al. (see Sekine, T., et al. J. Biol. Chem., Vol. 272, pp. 18526-9, 1997).
According to the already reported method of Sekine, et al. (Sekine, T., et al. J. Biol. Chem., Vol. 272, pp. 18526-9, 1997), the resulting hOAT3 cRNA was injected in the Xenopus oocyte; the oocyte was subjected to an uptake test with various radiolabeled organic anions and organic cations. The control oocyte cell (oocyte cell with no injection of hOAT3 cRNA) and the oocyte cell injected with hOAT3 cRNA were cultured in a buffer containing the following radiolabels for one hour, to assay the uptake of the radiolabels into the oocytes.
In each figure, open column expresses the case of the control oocyte used; and closed column expresses the case of the oocyte injected with hOAT3 cRNA.

Data set [2] addresses T2, rat OAT3 (rk1411) (Rattus norvegicus, UniProt Q9R1U7).
T2 construct: cRNA (RNA complementary to cDNA) was prepared in vitro from the plasmid carrying the clone (rk1411); expressed in transfected cells; host or cells: Xenopus oocytes injected with rk1411 cRNA
T2 sequence (Q9R1U7 1-536): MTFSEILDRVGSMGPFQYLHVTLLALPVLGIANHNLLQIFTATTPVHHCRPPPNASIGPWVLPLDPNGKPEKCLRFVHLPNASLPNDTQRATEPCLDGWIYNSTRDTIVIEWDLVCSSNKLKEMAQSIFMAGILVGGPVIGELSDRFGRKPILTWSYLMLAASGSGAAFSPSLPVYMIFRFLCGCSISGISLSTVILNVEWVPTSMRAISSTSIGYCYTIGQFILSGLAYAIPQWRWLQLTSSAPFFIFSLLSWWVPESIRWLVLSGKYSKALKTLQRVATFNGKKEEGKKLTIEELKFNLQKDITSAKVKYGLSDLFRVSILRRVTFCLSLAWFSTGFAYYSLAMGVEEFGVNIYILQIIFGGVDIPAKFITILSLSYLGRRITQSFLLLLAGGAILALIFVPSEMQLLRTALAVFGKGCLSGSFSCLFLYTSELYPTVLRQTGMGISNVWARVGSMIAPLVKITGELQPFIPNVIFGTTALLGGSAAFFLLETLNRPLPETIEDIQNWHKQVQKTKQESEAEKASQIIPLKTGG
The experiment in a line: Uptake of radiolabeled organic anions and cations by Xenopus oocyte expressing rk1411 (rat OAT3). Conditions: Xenopus oocyte injected with rk1411 cRNA; FIG. 1.

The target in data set [3] is T2, rat OAT3 (rk1411). Briefly: Michaelis-Menten dynamic test of organic anion transport with rk1411 in oocyte. The text has this: The organic anion transport with rk1411 was subjected to the Michaelis-Menten dynamic test.
Data set [4] concerns the target T3, hOAT3 (Homo sapiens, UniProt Q8TCC7, D366H/K271E).
T3 sequence (Q8TCC7 1-542 K271E/D366H): T1 sequence (Q8TCC7 1-542 K271E/D366H)
Briefly: Inhibition of 3H-estrone sulfate uptake in oocyte injected with hOAT3 cRNA. More on the design: cRNA (RNA complementary to cDNA) was prepared in vitro from the plasmid comprising the hOAT3 recovered above; expressed in transfected cells; host or cells: Xenopus oocytes injected with hOAT3 cRNA. Conditions: 50 nM 3H-estrone sulfate; non-radiolabeled compound at 500 μM or the concentration shown in FIG. 19; one hour.

In data set [5] the target is T2, rat OAT3 (rk1411). The experiment in a line: Inhibition of 3H-estrone sulfate uptake in oocyte injected with rk1411 cRNA.
Substrate in data set [6]: Nc1ccc(C(=O)NCC(=O)O)cc1
Briefly: Michaelis-Menten dynamic test of organic anion transport with rk1411 in oocyte. Conditions: other: transport by rk1411 (rat OAT3) in Xenopus oocyte; FIG. 2.

Setting [7] is: substrate 10 μM, one hour, versus control oocyte.
[8] abbreviates: transport by rk1411 (rat OAT3) in Xenopus oocyte.
The mark [9] stands for this setting: 1 mM unlabeled compound, Xenopus oocyte, FIG. 3.
[10] abbreviates: substrate 50 nM, one hour, versus control oocyte.
The mark [11] stands for this setting: substrate 100 nM, one hour, versus control oocyte.

One may read the Km as the substrate concentration at which the rate is half of its maximum. As to `Nc1ccc(C(=O)NCC(=O)O)cc1` [PAH, p-aminohippuric acid], in data set [1] (setting [7]), the “uptake of radiolabeled compound by oocyte with hOAT3 expression” value (from here on “uptake … with hOAT3 expression”) is reported as “takes up”. For the same molecule, the “uptake of radiolabeled compound by oocyte in which rk1411 was expressed” value in data set [2] is reported as “could take up”. Further, in data set [3], the Km stood at 64.7 ± 10 µM. In addition, the Vmax in data set [3] (setting [8]) was 23.3 ± 2.8 pmol/hr/oocyte. Also, in data set [4], the “inhibition of the transport of 3H-estrone sulfate with hOAT3” value (“inhibition of the transport … with hOAT3” for short) is listed as “significantly inhibited”.

Consider `CC[N+](CC)(CC)CC` [TEA, tetraethylammonium], for which, in data set [1], the “uptake … with hOAT3 expression” value is listed as “never transported”. Moreover, the “inhibition of the transport … with hOAT3” value in data set [4] was “never exerted any inhibitory action”.

As to `CC1(C)S[C@@H]2[C@H](NC(=O)Cc3ccccc3)C(=O)N2[C@H]1C(=O)O` [benzylpenicillin], the “inhibition of 3H-estrone sulfate transport with rk1411” value (shortened to “inhibition … with rk1411”) in data set [5] (setting [9]) was “significantly inhibited”. Besides, in data set [4], the “inhibition of the transport … with hOAT3” value is “significantly inhibited”.

Consider `COc1ccc(CCN(C)CCCC(C#N)(c2ccc(OC)c(OC)c2)C(C)C)cc1OC` (stereo not shown) [berapamil], for which the “inhibition … with rk1411” value in data set [5] (setting [9]) is listed as “never exerted any such inhibitory action”.

For the molecule `O=C1OC(c2ccc(O)c(S(=O)(=O)O)c2)(c2ccc(O)c(S(=O)(=O)O)c2)c2c(Br)c(Br)c(Br)c(Br)c21` [bromosulfophthalein], in data set [5] (setting [9]), the “inhibition … with rk1411” value was “significantly inhibited”. For the same molecule, the “inhibition of the transport … with hOAT3” value in data set [4] was “significantly inhibited”.

In the case of `CCCCNc1cc(C(=O)O)cc(S(N)(=O)=O)c1Oc1ccccc1` [bumetanide], the “inhibition … with rk1411” value in data set [5] (setting [9]) is reported as “significantly inhibited”.

For `C[C@H](CCC(=O)O)[C@H]1CC[C@H]2[C@@H]3[C@H](O)C[C@@H]4C[C@H](O)CC[C@]4(C)[C@H]3C[C@H](O)[C@]12C` [cholic acid], in data set [1] (setting [7]), the “uptake … with hOAT3 expression” value is reported as “takes up”. For the same molecule, the “inhibition … with rk1411” value in data set [5] (setting [9]) is reported as “significantly inhibited”.

Regarding `CN/C(=N/CCSCc1nc[nH]c1C)NC#N` [cimetidine], the “uptake … with hOAT3 expression” value in data set [1] (substrate 150 nM, one hour, versus control oocyte) is given as “takes up”.

For `C[C@]12CC[C@@H]3c4ccc(O)cc4CC[C@H]3[C@@H]1CC[C@@H]2O[C@@H]1O[C@H](C(=O)O)[C@@H](O)[C@H](O)[C@H]1O` [estradiol glucuronide], in data set [1] (setting [10]), the “uptake … with hOAT3 expression” value is reported as “takes up”.

For the molecule `O=C(O)CCCC(=O)O` [glutaric acid], in data set [1] (setting [7]), the “uptake … with hOAT3 expression” value is listed as “takes up”. For the same molecule, the “inhibition of the transport … with hOAT3” value in data set [4] is listed as “significantly inhibited”.

In the case of `N=C(N)N` [guanidine], in data set [5] (setting [9]), the “inhibition … with rk1411” value is on record as “never exerted any such inhibitory action”.

`CC1(C)C(/C=C/C=C/C=C/C=C2\N(CCCCS(=O)(=O)O)c3ccc4ccccc4c3C2(C)C)=[N+](CCCCS(=O)(=O)[O-])c2ccc3ccccc3c21` [indocyanine green]: the “inhibition … with rk1411” value in data set [5] (setting [9]) is reported as “significantly inhibited”.

As for `COc1ccc2c(c1)c(CC(=O)O)c(C)n2C(=O)c1ccc(Cl)cc1` [indomethacin], in data set [1] (setting [7]), the “uptake … with hOAT3 expression” value is given as “takes up”. Further, the “inhibition of the transport … with hOAT3” value in data set [4] is given as “significantly inhibited”.

`CN(Cc1cnc2nc(N)nc(N)c2n1)c1ccc(C(=O)N[C@@H](CCC(=O)O)C(=O)O)cc1` [methotrexate]: in data set [1] (setting [11]), the “uptake … with hOAT3 expression” value is recorded as “takes up”. For the same molecule, in data set [4], the “inhibition of the transport … with hOAT3” value is reported as “significantly inhibited”.

Regarding `C[C@@H]1Cc2c(Cl)cc(C(=O)N[C@@H](Cc3ccccc3)C(=O)O)c(O)c2C(=O)O1` [ochratoxin A], the “uptake … with hOAT3 expression” value in data set [1] (setting [11]) is given as “takes up”. Moreover, in data set [2], the “uptake of radiolabeled compound by oocyte in which rk1411 was expressed” value is given as “could take up”. The Vmax in data set [3] (setting [8]) is 8.08 ± 0.33 pmol/hr/oocyte. Besides, the Km in data set [3] (transport by rk1411 (rat OAT3) in Xenopus oocyte, FIG. 2, listed as Ochratoxin A, read-out: Km) was 0.739 ± 0.178 µM; in data set [3] (transport by rk1411 (rat OAT3) in Xenopus oocyte, FIG. 2, read-out: Km), 0.74 µM.

Take `CCCN(CCC)S(=O)(=O)c1ccc(C(=O)O)cc1` [probenecid]: the “inhibition … with rk1411” value in data set [5] (setting [9]) is “significantly inhibited”. Moreover, in data set [4], the “inhibition of the transport … with hOAT3” value is on record as “significantly inhibited”.

In the case of `CCCCC[C@H](O)/C=C/[C@H]1[C@H](O)CC(=O)[C@@H]1C/C=C\CCCC(=O)O` [prostaglandin E2], in data set [1] (substrate 1 nM, one hour, versus control oocyte), the “uptake … with hOAT3 expression” value is reported as “takes up”.

Consider `CN1C(C(=O)Nc2ccccn2)=C(O)c2ccccc2S1(=O)=O` [pyroxicam], for which the “inhibition … with rk1411” value in data set [5] (setting [9]) is reported as “significantly inhibited”.

For `O=C(O)c1ccccc1O` [salicylic acid], the “uptake … with hOAT3 expression” value in data set [1] (substrate 1 μM, one hour, versus control oocyte) is on record as “takes up”.

Consider `C[C@H](CCC(=O)NCCS(=O)(=O)O)[C@H]1CC[C@H]2[C@@H]3[C@H](O)C[C@@H]4C[C@H](O)CC[C@]4(C)[C@H]3C[C@H](O)[C@]12C` [taurocholic acid], for which the “uptake … with hOAT3 expression” value in data set [1] (setting [7]) is given as “takes up”. Also, in data set [5], the “inhibition … with rk1411” value is “significantly inhibited”. Also, the “inhibition of the transport … with hOAT3” value in data set [4] was “significantly inhibited”.

For the molecule dehydroepiandrosterone sulfate, the “uptake … with hOAT3 expression” value in data set [1] (setting [10]) is recorded as “takes up”.

B1: rat OAT3 (rk1411) (Rattus norvegicus) (protein)
chain: T2 sequence (Q9R1U7 1-536)
notes: cRNA (RNA complementary to cDNA) was prepared in vitro from the plasmid carrying the clone (rk1411); expressed in transfected cells; host or cells: Xenopus oocytes injected with rk1411 cRNA
As to B1, in data set [6], the Km was found to be 4.7 µM.
